Results as given in ChEMBL document CHEMBL4118287, “Polysaccharide deacetylases serve as new targets for the design of inhibitors against Bacillus anthracis and Bacillus cereus” (Bioorg Med Chem, 2018).
≈ marks a conversion by molar mass, not a printed value. Calls of active or inactive are those of the source. The calls are words filed in the database; no cut-off is given here.

Key:
Bacillus anthracis [1] = assay: Inhibition of Bacillus anthracis 7702 BA1977 assessed as induction of lysozyme sensitivity at 10 to 50 uM incubated for 250 mins under shaking condition measured every 30 mins
Bacillus anthracis [2] = assay: Inhibition of Bacillus anthracis 7702 BA1977 assessed as induction of lysozyme sensitivity at 50 uM incubated for 250 mins under shaking condition measured every 30 mins
[3] = biological target: T1, Peptidoglycan-N-acetylglucosamine deacetylase BC_1974 (Bacillus cereus (strain ATCC 14579 / DSM 31 / JCM 2152 / NBRC 15305 /NCIMB 9373 / NRRL B-3711), UniProt Q81EJ6); assay: Inhibition of recombinant Bacillus cereus BC1974 expressed in Escherichia coli using GlcNAc5 as substrate measured after 5 mins by fluorescamine based fluorescence assay
T1 sequence (Q81EJ6 whole entry): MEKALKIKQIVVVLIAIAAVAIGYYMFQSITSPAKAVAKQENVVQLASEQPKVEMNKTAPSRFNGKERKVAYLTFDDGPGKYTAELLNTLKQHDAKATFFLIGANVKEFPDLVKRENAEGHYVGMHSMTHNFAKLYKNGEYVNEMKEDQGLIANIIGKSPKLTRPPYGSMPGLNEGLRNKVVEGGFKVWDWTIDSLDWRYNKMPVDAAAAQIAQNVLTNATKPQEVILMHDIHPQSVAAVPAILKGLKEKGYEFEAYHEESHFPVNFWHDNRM

Bacillus cereus [4] = assay: Bactericidal activity against Bacillus cereus ATCC 14579 measured after 72 hrs in presence of lysozyme; type: functional; details: ATCC 14579, 72 h
[5] = biological target: T2, Peptidoglycan-N-acetylglucosamine deacetylase BC_1960 (Bacillus cereus (strain ATCC 14579 / DSM 31 / JCM 2152 / NBRC 15305 /NCIMB 9373 / NRRL B-3711), UniProt Q81EK9); assay: Competitive inhibition of recombinant Bacillus cereus BC1960 expressed in Escherichia coli using varying levels of GlcNAc5 as substrate measured after 10 mins in presence of fluorescamine by Line-weaver burk plot analysis; details: read-out: Ki(app)
T2 sequence (Q81EK9 whole entry): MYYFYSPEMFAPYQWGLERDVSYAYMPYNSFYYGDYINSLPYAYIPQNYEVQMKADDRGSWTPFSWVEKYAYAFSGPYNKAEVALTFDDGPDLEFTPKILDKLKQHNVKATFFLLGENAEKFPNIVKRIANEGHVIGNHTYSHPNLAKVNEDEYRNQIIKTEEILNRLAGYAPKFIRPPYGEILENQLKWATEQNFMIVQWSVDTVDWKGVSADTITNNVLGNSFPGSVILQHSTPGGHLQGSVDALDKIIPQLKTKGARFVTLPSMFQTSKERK

Bacillus anthracis [6] = assay: Antibacterial activity against Bacillus anthracis 7702 measured after 16 hrs in presence of lysozyme; type: functional; details: Bacillus anthracis, 7702, 16 h
Bacillus anthracis [7] = assay: Bactericidal activity against Bacillus anthracis 7702 measured after 72 hrs in absence of lysozyme; type: functional; details: Bacillus anthracis, 7702, 72 h
Bacillus anthracis [8] = assay: Ratio of MBC to MIC for Bacillus anthracis 7702 measured after 16 hrs in presence of lysozyme; type: functional
Bacillus cereus [9] = assay: Bactericidal activity against Bacillus cereus ATCC 14579 measured after 72 hrs in absence of lysozyme; type: functional; details: ATCC 14579, 72 h
Bacillus anthracis [10] = assay: Ratio of MBC to MIC for Bacillus anthracis 7702 measured after 16 hrs in absence of lysozyme; type: functional
Bacillus cereus [11] = assay: Ratio of MBC to MIC for Bacillus cereus ATCC 14579 measured after 16 hrs in absence of lysozyme; type: functional
Bacillus cereus [12] = assay: Antibacterial activity against Bacillus cereus ATCC 14579 measured after 16 hrs in absence of lysozyme; type: functional; details: ATCC 14579, 16 h
[13] = biological target: T2, Peptidoglycan-N-acetylglucosamine deacetylase BC_1960; assay: Inhibition of recombinant Bacillus cereus BC1960 expressed in Escherichia coli using GlcNAc5 as substrate measured after 10 mins by fluorescamine based fluorescence assay
Bacillus cereus [14] = assay: Antibacterial activity against Bacillus cereus ATCC 14579 assessed as production of longer chains of daughter cells at 40 ug/ml incubated 16 hrs under shaking condition by scanning electron microscopic analysis; type: functional, organism-based
Bacillus anthracis [15] = assay: Bactericidal activity against Bacillus anthracis 7702 measured after 72 hrs in presence of lysozyme; type: functional; details: Bacillus anthracis, 7702, 72 h
Bacillus cereus [16] = assay: Ratio of MBC to MIC for Bacillus cereus ATCC 14579 measured after 16 hrs in presence of lysozyme; type: functional
Bacillus anthracis [17] = assay: Antibacterial activity against Bacillus anthracis 7702 measured after 16 hrs in absence of lysozyme; type: functional; details: Bacillus anthracis, 7702, 16 h
[18] = biological target: T1, Peptidoglycan-N-acetylglucosamine deacetylase BC_1974; assay: Competitive inhibition of recombinant Bacillus cereus BC1974 expressed in Escherichia coli using varying levels of GlcNAc5 as substrate measured after 5 mins in presence of fluorescamine by Line-weaver burk plot analysis; details: read-out: Ki(app)
Bacillus cereus [19] = assay: Antibacterial activity against Bacillus cereus ATCC 14579 measured after 16 hrs in presence of lysozyme; type: functional; details: ATCC 14579, 16 h
[20] = compound: O=C(NO)c1ccc(-c2cccc3ccccc23)cc1; assay: Competitive inhibition of recombinant Bacillus cereus BC1974 expressed in Escherichia coli assessed as substrate Km at 40 uM using varying levels of GlcNAc5 as substrate measured after 5 mins in presence of fluorescamine by Line-weaver burk plot analysis
[21] = compound: O=C(NO)c1ccc(-c2cccc3ccccc23)cc1; assay: Competitive inhibition of recombinant Bacillus cereus BC1974 expressed in Escherichia coli assessed as substrate Km at 20 uM using varying levels of GlcNAc5 as substrate measured after 5 mins in presence of fluorescamine by Line-weaver burk plot analysis

Question: With `O=C(NO)c1cccc(-c2ccccc2)c1` as the molecule, how does the inhibition (Bacillus anthracis [1]) read?
Answer: The inhibition was “inactive”.

Question: With `O=C(NO)c1ccc(-c2cccc3ccccc23)cc1` as the molecule, how does the inhibition (Bacillus anthracis [2]) read?
Answer: The inhibition was “Active”.

Question: And the IC50 [3]?
Answer: The IC50 was 43.3 µM.

Question: What about the MBC (Bacillus cereus [4]) of the same molecule?
Answer: The MBC was 8.23 µg/mL.

Question: What about the Ki [5] of the same molecule?
Answer: The Ki was 66 µM.

Question: What about the MIC (Bacillus anthracis [6]) of the same molecule?
Answer: Its MIC is 6.58 µg/mL.

Question: And the MBC (Bacillus anthracis [7])?
Answer: Its MBC is 8.23 µg/mL (≈ 31.3 µM).

Question: What about the Ratio (Bacillus anthracis [8]) of the same molecule?
Answer: The Ratio was less than 4.

Question: And the MBC (Bacillus cereus [9])?
Answer: The MBC was 8.23 µg/mL (≈ 31.3 µM).

Question: What about the Ratio (Bacillus anthracis [10]) of the same molecule?
Answer: The Ratio was less than 4.

Question: What about the Ratio (Bacillus cereus [11]) of the same molecule?
Answer: Its Ratio is less than 4.

Question: And the MIC (Bacillus cereus [12])?
Answer: The MIC was 6.58 µg/mL (≈ 25 µM).

Question: And the IC50 [13]?
Answer: The IC50 was 132 µM.

Question: And the Activity (Bacillus cereus [14])?
Answer: The Activity was “Active”.

Question: And the MBC (Bacillus anthracis [15])?
Answer: The MBC was 8.23 µg/mL.

Question: And the Ratio (Bacillus cereus [16])?
Answer: The Ratio was less than 4.

Question: What about the MIC (Bacillus anthracis [17]) of the same molecule?
Answer: The MIC was 7.89 µg/mL (≈ 30 µM).

Question: And the Ki [18]?
Answer: The Ki was 8.7 µM.

Question: And the MIC (Bacillus cereus [19])?
Answer: Its MIC is 5.26 µg/mL.

Question: With `O=C(NO)c1cccc2ccccc12` as the molecule, how does the inhibition (Bacillus anthracis [1]) read?
Answer: Its inhibition is “inactive”.

Question: How did the inhibition (Bacillus anthracis [1]) turn out when `O=C(NO)c1cccc(Oc2ccccc2)c1` was run?
Answer: Its inhibition is “inactive”.

B1: Peptidoglycan-N-acetylglucosamine deacetylase BC_1974 (Bacillus cereus (strain ATCC 14579 / DSM 31 / JCM 2152 / NBRC 15305 /NCIMB 9373 / NRRL B-3711)), Q81EJ6 (protein)
chain: MEKALKIKQIVVVLIAIAAVAIGYYMFQSITSPAKAVAKQENVVQLASEQPKVEMNKTAPSRFNGKERKVAYLTFDDGPGKYTAELLNTLKQHDAKATFFLIGANVKEFPDLVKRENAEGHYVGMHSMTHNFAKLYKNGEYVNEMKEDQGLIANIIGKSPKLTRPPYGSMPGLNEGLRNKVVEGGFKVWDWTIDSLDWRYNKMPVDAAAAQIAQNVLTNATKPQEVILMHDIHPQSVAAVPAILKGLKEKGYEFEAYHEESHFPVNFWHDNRM
Question: Which results are given for B1?
Answer: Km [20]: 42 µM; Km [21]: 22.8 µM
